The source of these data is US20250066468A1, “LIPOSOME ENCAPSULATED AFFINITY DRUG” (L.E.A.F. HOLDINGS GROUP LLC, priority 2014, published 2025).

Data set [1] has as its system phosphorylated p38 in SL0003 lung cancer cells. The data set can be described thus: p38 phosphorylation (PhosFlow). The class given is cell-based. Particulars: 30 minutes, pemetrexed at 10 μM and 50 μM. As for the experimental part:
A second measure of sample liposome entering the cell is intracellular activation pathways. Cells respond to ligands binding to their receptors by activating kinases, in this case p38. The activated kinases can be measured by flow cytometry. The cells are incubated with sample liposome for 30 minutes and then lysed with a mild detergent. The activated p38 kinase is detected with an antibody by flow cytometry. A shift under the red line gate indicates a higher level of phosphorylated p38 (See FIG. 18A and 18BG). Cancer cells may have a higher basal level of activated kinases.
In addition, for FIG. 17, measuring p38 phosphorylation (PhosFlow) SL0003, normal colon cells, and normal breast cells were seeded at 10,000 cells/well. Cells were treated with: Fresh Pemetrexed ([…]), LEAF-001 (Liposome 070715 MPF; 5traut/50 Mab, 15traut/50Mab, 45traut/50Mab) (13.33× dilution), anti-folate receptor alpha (MABFRA H/L 1.01 mg/ml) (13.33× dilution) to determine the effect of the antibody in sample liposome, or no treatment. The cells were gently mixed and quickly placed in incubator. At each time point (30 minutes-4 hours), the plates were removed from the incubator and immediately fixed with formaldehyde for a final concentration of 2%. The plates were incubated for 5 minutes at room temperature. 25 μl of media was removed. […] The cells were read on the flow cytometer (in FL2).

Data set [2] deals with SL0003 (lung cancer) cells. Description: Cell cycle by propidium iodide DNA staining, flow cytometry. Format: cell-based. Particulars: titrated concentrations, day 5. As for the experimental part: SL0003 (lung cancer) cells were prepared as described in the Example describing MTS assays (Example 5).
For this assay, the cells were cultured for 4 or 5 days (shown is day 5.). More specifically, […] cells (lung adenocarcinoma) were seeded in 96 well plates and treated the next day with titrated concentrations of LEAF-001 or pemetrexed. At day 5, cells were lysed with FACS buffer, 0.2% triton X-100, 0.3% formaldehyde. The DNA was stained with Propidium Iodine for 30 minutes […] to evaluate cell cycle
The cells were washed and evaluated by flow cytometry (FL2). FIG. 22A depicts a schematic showing the cell cycle. By inhibiting the formation of precursor purine and pyrimidine nucleotides, pemetrexed prevents the formation of DNA and RNA, which are required for the growth and survival of both normal cells and cancer cells.

The subject of the next data set is CD34+ stem cells. The data set can be described thus: Neutrophil differentiation of CD34+ stem cells, flow cytometry. Particulars: pemetrexed 2-50 μM; day 2; n=4 donors. Format: cell-based, human. As for the experimental part: Experiments were performed as follows: CD34+ stem cells were obtained from ATCC. CD34+ cells were thawed at 37° C. for 1 minute. While on ice, the cells were transferred to cold stem cell medium (“StemSpan SFEM”-Stem Cell Tech. cat. #9650), 10% heat […] fetal bovine serum (HI FBS.) Each vial contained approximated 5×10^5 cell/ml. The cells were placed in 96 well tissue culture plates 35,000 cell/well. The neutrophils GROWTH media contained 100 ng/ml of stem cell factor human (SCF-Sigma H8416, lot #MKB[…]), 20 ng/ml of granulocyte colony-stimulation factor, human (G-CSF-Sigma H5541, lot #SLB[…]), 10 ng/ml of IL3 recombinant human (Sigma SRP3090, lot #1008AFC13) in […] media as above. […] The cells shown in the circle on the plots are maturing neutrophils expressing Mac-1 and CD34.
In general terms: Flow cytometry measures light scatter and fluorescence of single cells or particles in a stream.

The conditions of data set [3]: neutral pH; cited from earlier work.

For orientation: solubility means the dissolved amount per volume that the medium holds. As for `Nc1nc2[nH]cc(CCc3ccc(C(=O)N[C@@H](CCC(=O)O)C(=O)O)cc3)c2c(=O)[nH]1` [pemetrexed, Pemetrexed disodium heptahydrate], the “effect on p38 activation” value in data set [1] is on record as “reduces p38 activation”. Further, the “cell cycle effect (accumulation in S phase)” value in data set [2] is recorded as “induces cells to accumulate in S phase”. The neutrophil differentiation result with CD34+ stem cells was “neutrophil differentiation is inhibited”. Further, the solubility in data set [3] is 100 mg/mL.
